Reference: ChEMBL document CHEMBL1795286, “A concise synthesis and antimicrobial activities of 3-polyamino-23,24-bisnorcholanes as steroid-polyamine conjugates” (2011)

Columns and labels:
Staphylococcus aureus [1] = experiment: Antimicrobial activity against Staphylococcus aureus ATCC 6538P after 18 hrs by twofold agar dilution method; assay type: functional
Staphylococcus aureus [2] = experiment: Antimicrobial activity against Staphylococcus aureus ATCC 25923 after 18 hrs by twofold agar dilution method; assay type: functional; settings: ATCC 25923, 18 h, read-out: MIC
Staphylococcus aureus [3] = experiment: Antimicrobial activity against Staphylococcus aureus giorgio after 18 hrs by twofold agar dilution method; assay type: functional
Staphylococcus aureus [4] = experiment: Antimicrobial activity against Staphylococcus aureus 77 after 18 hrs by twofold agar dilution method; assay type: functional; settings: Staphylococcus aureus, 77, 18 h; read-out: MIC
Staphylococcus aureus [5] = experiment: Antimicrobial activity against Staphylococcus aureus 241 after 18 hrs by twofold agar dilution method; assay type: functional; settings: Staphylococcus aureus, 241, 18 h
[6] = tested on: Staphylococcus epidermidis; experiment: Antimicrobial activity against Staphylococcus epidermidis 887E after 18 hrs by twofold agar dilution method; assay type: functional
Enterococcus faecalis = experiment: Antimicrobial activity against Enterococcus faecalis ATCC 29212 after 18 hrs by twofold agar dilution method; assay type: functional; settings: ATCC 29212, 18 h
Escherichia coli [7] = experiment: Antimicrobial activity against Escherichia coli ATCC 25922 after 18 hrs by twofold agar dilution method; assay type: functional; settings: ATCC 25922, 18 h
Escherichia coli [8] = experiment: Antimicrobial activity against Escherichia coli ATCC 10536 after 18 hrs by twofold agar dilution method; assay type: functional; settings: ATCC 10536, 18 h
Escherichia coli [9] = experiment: Antimicrobial activity against Escherichia coli 3190Y after 18 hrs by twofold agar dilution method; assay type: functional
Escherichia coli [10] = experiment: Antimicrobial activity against Escherichia coli 851E after 18 hrs by twofold agar dilution method; assay type: functional
Salmonella typhimurium [11] = experiment: Antimicrobial activity against Salmonella Typhimurium ATCC 14028 after 18 hrs by two-fold agar dilution method; assay type: functional, Salmonella enterica subsp. enterica serovar Typhimurium; settings: Salmonella enterica, ATCC 14028, 18 h
Salmonella typhimurium [12] = experiment: Antimicrobial activity against Salmonella typhimurium ATCC 13311 after 18 hrs by twofold agar dilution method; assay type: functional, Salmonella enterica subsp. enterica serovar Typhimurium; settings: Salmonella enterica, ATCC 13311, 18 h
Klebsiella pneumoniae = experiment: Antimicrobial activity against Klebsiella pneumoniae 2011E after 18 hrs by twofold agar dilution method; assay type: functional
Moraxella catarrhalis [13] = experiment: Antimicrobial activity against Moraxella catarrhalis 25240 after 18 hrs by twofold agar dilution method; assay type: functional; settings: Moraxella catarrhalis, 25240, 18 h
Moraxella catarrhalis [14] = experiment: Antimicrobial activity against Moraxella catarrhalis C2431 after 18 hrs by twofold agar dilution method; assay type: functional; settings: C2431, 18 h
Proteus vulgaris = experiment: Antimicrobial activity against Proteus vulgaris 6059 after 18 hrs by twofold agar dilution method; assay type: functional; settings: Proteus vulgaris, 6059, 18 h
Morganella morganii = experiment: Antimicrobial activity against Morganella morganii 1375E after 18 hrs by twofold agar dilution method; assay type: functional
Citrobacter freundii = experiment: Antimicrobial activity against Citrobacter freundii 8090 after 18 hrs by twofold agar dilution method; assay type: functional; settings: Citrobacter freundii, 8090, 18 h
Citrobacter koseri = experiment: Antimicrobial activity against Citrobacter diversus 2046 after 18 hrs by twofold agar dilution method; assay type: functional; settings: Citrobacter koseri, 2046, 18 h
Enterobacter cloacae [15] = experiment: Antimicrobial activity against Enterobacter cloacae ATCC 27508 after 18 hrs by twofold agar dilution method; assay type: functional; settings: ATCC 27508, 18 h
Enterobacter cloacae [16] = experiment: Antimicrobial activity against Enterobacter cloacae P99 after 18 hrs by twofold agar dilution method; assay type: functional; settings: P99, 18 h
Serratia marcescens [17] = experiment: Antimicrobial activity against Serratia marcescens ATCC 27117 after 18 hrs by twofold agar dilution method; assay type: functional; settings: ATCC 27117, 18 h
Serratia marcescens [18] = experiment: Antimicrobial activity against Serratia marcescens 1826E after 18 hrs by twofold agar dilution method; assay type: functional
[19] = tested on: Acinetobacter calcoaceticus; experiment: Antimicrobial activity against Acinetobacter calcoaceticus ATCC 15473 after 18 hrs by twofold agar dilution method; assay type: functional; settings: ATCC 15473, 18 h
Micrococcus luteus = experiment: Antimicrobial activity against Micrococcus luteus ATCC 9341 after 18 hrs by twofold agar dilution method; assay type: functional; settings: ATCC 9341, 18 h
Bacillus cereus = experiment: Antimicrobial activity against Bacillus cereus ATCC 27348 after 18 hrs by twofold agar dilution method; assay type: functional; settings: ATCC 27348, 18 h
Bacillus subtilis = experiment: Antimicrobial activity against Bacillus subtilis ATCC 6633 after 18 hrs by twofold agar dilution method; assay type: functional; settings: ATCC 6633, 18 h
Bacillus licheniformis = experiment: Antimicrobial activity against Bacillus licheniformis EMR after 18 hrs by twofold agar dilution method; assay type: functional; settings: read-out: MIC
Pseudomonas aeruginosa = experiment: Antimicrobial activity against Pseudomonas aeruginosa 6065Y after 18 hrs by twofold agar dilution method; assay type: functional
Klebsiella aerogenes = experiment: Antimicrobial activity against Klebsiella aerogenes harboring beta-lactamase SHV-1 1976E mutant after 18 hrs by twofold agar dilution method; assay type: functional

C[C@H](CO)[C@H]1CC[C@H]2[C@@H]3CC[C@@H]4C[C@H](NCCCNCCCCN)CC[C@]4(C)[C@H]3CC[C@]12C.Cl.Cl.Cl gave an MIC (Staphylococcus aureus [1]) of 32 µg/mL, an MIC (Staphylococcus aureus [2]) of 32 µg/mL and an MIC (Staphylococcus aureus [3]) of 32 µg/mL. It also gave an MIC (Staphylococcus aureus [4]) of 32 µg/mL, an MIC (Staphylococcus aureus [5]) of over 32 µg/mL and an MIC [6] of over 32 µg/mL. For the same compound, the MIC (Enterococcus faecalis) was over 32 µg/mL, the MIC (Escherichia coli [7]) was over 32 µg/mL and the MIC (Escherichia coli [8]; read-out: MIC) was under 32 µg/mL. It also gave an MIC (Escherichia coli [9]; read-out: MIC) of under 32 µg/mL, an MIC (Escherichia coli [10]) of over 32 µg/mL and an MIC (Salmonella typhimurium [11]) of over 32 µg/mL. For the same compound, the MIC (Salmonella typhimurium [12]) was over 32 µg/mL, the MIC (Klebsiella pneumoniae) was over 32 µg/mL and the MIC (Moraxella catarrhalis [13]) was over 32 µg/mL. It also gave an MIC (Moraxella catarrhalis [14]) of over 32 µg/mL, an MIC (Proteus vulgaris) of over 32 µg/mL and an MIC (Morganella morganii) of over 32 µg/mL. For the same compound, the MIC (Citrobacter freundii) was over 32 µg/mL, the MIC (Citrobacter koseri) was over 32 µg/mL and the MIC (Enterobacter cloacae [15]) was over 32 µg/mL. It also gave an MIC (Enterobacter cloacae [16]) of over 32 µg/mL, an MIC (Serratia marcescens [17]) of over 32 µg/mL and an MIC (Serratia marcescens [18]) of over 32 µg/mL. For the same compound, the MIC [19] was over 32 µg/mL, the MIC (Micrococcus luteus) was over 32 µg/mL and the MIC (Bacillus cereus) was over 32 µg/mL. The MIC (Bacillus subtilis) was 32 µg/mL, the MIC (Bacillus licheniformis) was under 32 µg/mL and the MIC (Pseudomonas aeruginosa) was over 32 µg/mL. For the same compound, the MIC (Klebsiella aerogenes) was over 32 µg/mL.

C[C@H](CO)[C@H]1CC[C@H]2[C@@H]3CC[C@@H]4C[C@H](NCCCNCCCCNCCCN)CC[C@]4(C)[C@H]3CC[C@]12C.Cl.Cl.Cl.Cl gave an MIC (Staphylococcus aureus [1]) of 8 µg/mL, an MIC (Staphylococcus aureus [2]) of 32 µg/mL and an MIC (Staphylococcus aureus [3]) of 32 µg/mL. For the same compound, the MIC (Staphylococcus aureus [4]) was 8 µg/mL, the MIC (Staphylococcus aureus [5]; read-out: MIC) was 8 µg/mL and the MIC ([6]; read-out: MIC) was 16 µg/mL. The MIC (Enterococcus faecalis) was over 32 µg/mL, the MIC (Escherichia coli [7]) was over 32 µg/mL and the MIC (Escherichia coli [8]) was over 32 µg/mL. It also gave an MIC (Escherichia coli [9]) of over 32 µg/mL, an MIC (Escherichia coli [10]) of over 32 µg/mL and an MIC (Salmonella typhimurium [11]) of over 32 µg/mL. The MIC (Salmonella typhimurium [12]) was over 32 µg/mL, the MIC (Klebsiella pneumoniae) was over 32 µg/mL and the MIC (Moraxella catarrhalis [13]; read-out: MIC) was under 32 µg/mL. The MIC (Moraxella catarrhalis [14]; read-out: MIC) was under 32 µg/mL, the MIC (Proteus vulgaris) was over 32 µg/mL and the MIC (Morganella morganii) was over 32 µg/mL. The MIC (Citrobacter freundii) was over 32 µg/mL, the MIC (Citrobacter koseri) was over 32 µg/mL and the MIC (Enterobacter cloacae [15]) was over 32 µg/mL. It also gave an MIC (Enterobacter cloacae [16]) of over 32 µg/mL, an MIC (Serratia marcescens [17]) of over 32 µg/mL and an MIC (Serratia marcescens [18]) of over 32 µg/mL. The MIC [19] was over 32 µg/mL, the MIC (Micrococcus luteus; read-out: MIC) was 8 µg/mL and the MIC (Bacillus cereus) was over 32 µg/mL. It also gave an MIC (Bacillus subtilis) of 8 µg/mL, an MIC (Bacillus licheniformis) of under 32 µg/mL and an MIC (Pseudomonas aeruginosa) of over 32 µg/mL. For the same compound, the MIC (Klebsiella aerogenes) was over 32 µg/mL.

Compound C[C@H](CO)[C@H]1CC[C@H]2[C@@H]3[C@H](N)C[C@H]4C[C@@H](NCCCNCCCCN)CC[C@]4(C)[C@H]3CC[C@]12C.Cl.Cl.Cl has an MIC (Staphylococcus aureus [1]) of 16 µg/mL, an MIC (Staphylococcus aureus [2]) of 32 µg/mL and an MIC (Staphylococcus aureus [3]) of 32 µg/mL. It also gave an MIC (Staphylococcus aureus [4]) of 8 µg/mL, an MIC (Staphylococcus aureus [5]; read-out: MIC) of 16 µg/mL and an MIC ([6]; read-out: MIC) of 32 µg/mL. For the same compound, the MIC (Enterococcus faecalis; read-out: MIC) was under 32 µg/mL, the MIC (Escherichia coli [7]; read-out: MIC) was under 32 µg/mL and the MIC (Escherichia coli [8]) was over 32 µg/mL. For the same compound, the MIC (Escherichia coli [9]) was over 32 µg/mL, the MIC (Escherichia coli [10]) was over 32 µg/mL and the MIC (Salmonella typhimurium [11]) was over 32 µg/mL. The MIC (Salmonella typhimurium [12]) was over 32 µg/mL, the MIC (Klebsiella pneumoniae) was over 32 µg/mL and the MIC (Moraxella catarrhalis [13]) was over 32 µg/mL. The MIC (Moraxella catarrhalis [14]; read-out: MIC) was under 32 µg/mL, the MIC (Proteus vulgaris) was over 32 µg/mL and the MIC (Morganella morganii) was over 32 µg/mL. For the same compound, the MIC (Citrobacter freundii) was over 32 µg/mL, the MIC (Citrobacter koseri) was over 32 µg/mL and the MIC (Enterobacter cloacae [15]) was over 32 µg/mL. It also gave an MIC (Enterobacter cloacae [16]) of over 32 µg/mL, an MIC (Serratia marcescens [17]) of over 32 µg/mL and an MIC (Serratia marcescens [18]) of over 32 µg/mL. The MIC [19] was over 32 µg/mL, the MIC (Micrococcus luteus; read-out: MIC) was 16 µg/mL and the MIC (Bacillus cereus; read-out: MIC) was under 32 µg/mL. For the same compound, the MIC (Bacillus subtilis) was 16 µg/mL, the MIC (Bacillus licheniformis) was under 32 µg/mL and the MIC (Pseudomonas aeruginosa) was over 32 µg/mL. The MIC (Klebsiella aerogenes) was over 32 µg/mL.
